Laboratory results taken from PMC8235719, “New RAD51 Inhibitors to Target Homologous Recombination in Human Cells” (Genes, 2021).
Read-outs that look alike come from different tables or passages of the source.

Experiments:
[1] = tested on: MDA-MB-231 cells; experiment: Cell viability assay (Guava ViaCount flow cytometry), MDA-MB-231; type: cell-based, human; conditions: for IC50: read-out: IC50 of cell viability
Method: For all cell viability experiments, except experiments involving MMS treatment, cells were seeded into the media containing indicated concentrations of tested compounds or corresponding amounts of DMSO in controls. The concentration of DMSO in media was 0.1%. MDA-MB-231 cells were seeded into 24-well plates at 3.5 × 10^4 cells/well for cells for a 4-day treatment or at 5000 cells/well for a 10-day treatment. MCF 10A cells were seeded into 24-well plates at 1.5 × 10^4 cells/well for a 4-day treatment or at 500 cells/well for a 10-day treatment. In the case of 10-day treatments, the media with compounds were renewed twice on the 4th and the 7th days of treatments. After completion of the treatments, cells were harvested, and their viability was determined by flow cytometry with Guava ViaCount reagent (Luminex; Austin, TX USA). Data were analyzed using the Guava ViaCount software (Millipore; Burlington, VT, USA). The IC50 values were calculated using the GraphPad Prism 5 software (San Diego, CA, USA).

[2] = tested on: MCF 10A cells; experiment: Cell cycle analysis (propidium iodide flow cytometry); type: cell-based, human; conditions: 24 h
Method: Exponentially growing MDA-MB-231 and MCF 10A cells were seeded into 6-well plates at a density of 1.5 × 10^5 cells/well in the presence of indicated concentrations of B02-iso or 0.01% DMSO (for control cells). After 24 h of incubation, cells were harvested, placed on ice, and washed once with cold PBS. Cells were counted with an automated cell counter (Bio-Rad; Hercules, CA, USA), and 1 × 10^5 cells from each sample were taken for further analysis. Cells were resuspended in PBS, and then cold, absolute ethanol was added dropwise to a cell suspension to reach a final concentration of 70%, followed by incubation on ice for 1 h. Cells were washed in PBS, resuspended in staining buffer (50 µg/mL propidium iodide, 100 µg/mL RNase A, 0.1% Triton X-100 in PBS) and incubated for 15 min in the dark at 37 °C. Cells were analyzed for DNA content by flow cytometry using the Guava easyCyte system (Millipore; Burlington, VT, USA) with the InCyte software (Millipore; Burlington, VT, USA).

[3] = target: T1, HsRAD51 (Homo sapiens, UniProt Q06609); experiment: Surface plasmon resonance (SPR) binding to immobilized RAD51; conditions: 25 °C, equilibrium analysis, ± SD, read-out: KD, equilibrium dissociation constant of direct binding to hRAD51
T1 sequence (Q06609 1-339): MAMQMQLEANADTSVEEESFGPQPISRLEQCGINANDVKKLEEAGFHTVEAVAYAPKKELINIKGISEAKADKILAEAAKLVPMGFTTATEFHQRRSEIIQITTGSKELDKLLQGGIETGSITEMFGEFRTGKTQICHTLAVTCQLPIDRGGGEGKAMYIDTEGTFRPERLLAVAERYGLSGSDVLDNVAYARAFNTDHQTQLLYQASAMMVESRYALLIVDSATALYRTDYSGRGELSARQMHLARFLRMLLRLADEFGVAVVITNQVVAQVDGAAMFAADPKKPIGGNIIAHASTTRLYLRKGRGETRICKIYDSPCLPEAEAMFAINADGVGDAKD
Method: The binding of RAD51i to RAD51 was examined using a ProteOn XPR36 SPR Protein Interaction Array System (Bio-Rad, Hercules, CA, USA) at 25 °C. ProteOn GLH sensor chips were preconditioned with two 10 s pulses of 50 mM NaOH, 100 mM HCl, and 0.5% SDS followed by the system equilibration with the running buffer (20 mM sodium phosphate, 150 mM NaCl, and 0.005% Tween 20, pH 7.4). The surface of a GLH sensorchip was subsequently activated with a 1:100 dilution of a 1:1 mixture of 0.2 M EDC and 0.05 M Sulfo-NHS. Purified HsRAD51 was diluted to 500 µg/mL in 10 mM sodium acetate, pH 5.5, and injected immediately after chip activation across the ligand flow channels at 30 µL/min for 5 min. Unreacted protein was washed out, and the excess of unreacted ester groups on the sensor surface was capped by an injection of 1 M ethanolamine-HCl, pH 8.0, at 5 µL/min for 5 min. A reference surface to correct for nonspecific binding was similarly created by immobilizing an IgG b12 anti-HIV-1 gp120 antibody (IgG b12 anti-HIV-1 gp120; was obtained through the NIH AIDS Reagent Program, Division of AIDS, NIAID, NIH: Anti-HIV-1 gp120 Monoclonal (IgG1 b12) from Drs. Dennis Burton and Carlos Barbas). Serial dilutions of the compounds were prepared in the running buffer supplemented with 8% DMSO and injected at a flow rate of 100 μL/min for a 1 min association phase, followed by a 5 min dissociation phase using the “one-shot kinetics” functionality of the ProteOn instrument. Data were analyzed with ProteOn Manager Software version 3.0 (Bio-Rad; Hercules, CA, USA). The responses from the reference flow cell were subtracted to account for the non-specific binding and injection artifacts. Experiments were repeated at least three times. The equilibrium dissociation constants (KD) for the interactions were calculated in ProteOn Manager Version 3.1.0.6 (Bio-Rad; Hercules, CA, USA) using the equilibrium analysis function.

[4] = tested on: MDA-MB-231 cells; experiment: Cell viability of MDA-MB-231 after 1 h MMS treatment; type: cell-based, human; conditions: MDA-MB-231, 100 µM MMS 1 h
Method: For experiments in which MDA-MB-231 cells were treated with MMS, cells were seeded in 24-well plates at 3.5 × 10^4 cells/well. The next day, cells were treated with 100 µM MMS (Sigma, St. Louis, MO, USA) for 1 h in the presence of increasing concentrations of olaparib and 2 µM B02-iso where indicated. Then, cells were washed twice with PBS, which was followed by incubation with olaparib at indicated concentrations and 2 µM B02-iso where indicated for 4 days. After completion of the treatments, cells were harvested, and their viability was determined by flow cytometry using Guava ViaCount reagent (Luminex; Austin, TX, USA). Data were analyzed using the Guava ViaCount software (Millipore; Burlington, VT, USA).

## O=c1nc(/C=C/c2cccnc2)n(Cc2ccccc2)c2ccccc12 [B02-iso]
[1]; Homo sapiens, 96 h, MDA-MB-231, 2 µM, 4-day treatment, read-out: Growth inhibition
  inhibition at 2 µM: < 5%
[1]; Homo sapiens, MDA-MB-231, 96 h, MDA-MB-231, 4-day treatment
  IC50: 4.1 µM
[1]; Homo sapiens, MDA-MB-231, 240 h, MDA-MB-231, 10-day treatment, compound alone
  IC50: 2.6 µM
[1]; MDA-MB-231, 1.8 µM, 10-day treatment
  Effect on cell viability, compound alone: does not impair cell viability
[1]; MDA-MB-231, 10-day treatment, 1.8 µM B02-iso
  Fold increase in efficiency of olaparib killing: 2.4 fold
[2]
  Cell cycle effect: prominent G1 arrest
[3]
  Kd: 14.6 ± 6.2 µM
[4]; 4-day treatment
  Sensitization of cells to B02-iso by MMS in the absence of olaparib: did not sensitize
[4]; olaparib, 2 µM B02-iso, 4 days
  Effect on cell killing by MMS plus olaparib: further significantly increased
